“Also recorded” adds a separate entry of the source. Where two headings read alike, the source gives them in different places. Marks after values point to notes of the source that are not given here.

From PMC7235904, “Is Blood a Good Indicator for Detecting Antimicrobials in Meat? Evidence for the Development of In Vivo Surveillance Methods” (Antibiotics, 2020) come the findings set out here.

Series [1] in a line: Antimicrobial residue concentration and depletion in muscle of treated pigs within the withdrawal period (LC-MS/MS or HPLC-FLD). It counts as in vivo. As to conditions: for concentration at 2 day of withdrawal period: withdrawal period Day 2, pig; for concentration at 3 day of withdrawal period: withdrawal period Day 3, pig. The source says:
To obtain samples containing antimicrobial compounds administered in vivo, 93 piglets (62 female, 31 male) with an average weight of 43.00 ± 12.79 kg were provided at treatment onset. These piglets were untreated animals that remained on the premises of the Faculty of Veterinary Sciences at the University of Zaragoza (Zaragoza, Spain) 40 days before administration of the compounds. Both during the acclimatization and withdrawal periods, animals were fed ad libitum with a special mixed feed that was free of antibiotics ([…], Spain), and water was provided from a separated, controlled water circuit. Piglets were raised in separate pens depending on the antibiotic administrated. After administration, animals were slaughtered at preset intervals within the withdrawal period in order to obtain samples containing different antimicrobial concentrations above and below the MRLs for muscle. Figure S1 indicates the slaughter days and the withdrawal periods set by the manufacturer for each antimicrobial compound administered. Between one and three piglets were slaughtered on the same day post-administration. The day of slaughter was calculated from the first day after the last antimicrobial treatment dose. […] Apart from samples containing antimicrobial compounds administered in vivo, and as a part of the sample bank, 15 of the 93 piglets were slaughtered after the acclimatization period and before treatment onset. Animals were stunned and slaughtered following the guidelines established by European Council Regulation (EC) No. 1099/2009 [39] regarding the protection of animals at the time of slaughter or killing. A penetrative captive bolt gun was used to stun the pigs, positioning it firmly against the skin, in the middle of the forehead, 2 cm above the line of the eyes, aiming towards the tail. This was followed by complete exsanguination carried out by incision in the jugular furrow at the base of the neck to sever all the major blood vessels arising from the heart. The samples obtained from them were used as blank samples for analysis. […] Samples were immediately frozen at -20 °C until analysis. For HPLC-FLD analyses, matrix solid phase dispersion (MSPD) was used. A total of 1.00 ± 0.01 g of tissue was weighed. Internal quality control samples were spiked at this point. […] It was introduced into a 25 mL reservoir and compacted. Clean-up was made with 8 mL of hexane, and quinolones were eluted with 15 mL acetonitrile/methanol (1:1) acidified with acetic acid 1%. […] The extraction procedure for LC-MS/MS determination was based on Chico et al.. […] All samples were spiked with IS at this point, and calibrants and internal quality control samples were prepared by spiking the corresponding amount of standard working solution. A total of 200 μL of 0.1 M EDTA was added, followed by 10 mL of 70% methanol, and samples were vortexed for 30 s, swung for 15 min, and finally centrifuged at 4500 rcf for 10 min at a temperature below 10 °C (Heraeus Multifuge X3 FR, Heraeus, Hanau, Germany). Then, 500 μL of supernatant was collected and diluted by adding 1500 μL of water. Extracts were filtered through 0.2 μm pore filters directly into LC-MS/MS vials. […] Mobile phase consisted of eluent A: phosphoric acid with trimethylamine buffer (pH = 3), and eluent B: acetonitrile, in isocratic mode (21:79) with a flow rate of 1 mL/min. Injected volume was 50 μL. […] The same mobile phase and gradient conditions as in SCIEX instruments were applied. Injected volume was 10 μL. Two ESI+ MRM transitions were monitored for each compound (Table S5). […] Results were represented as the mean ± standard deviation using the PRISM program (GraphPad Software, Inc., San Diego, USA). The rates of elimination (λz) of antibiotics from muscle and blood were determined by regression analysis. […]

A short description of series [2]: Relationship between concentrations detected in paired blood and muscle samples. It counts as in vivo, pigs. As to conditions: paired pig blood and muscle samples. Here is the method: After administration, animals were slaughtered at preset intervals within the withdrawal period in order to obtain samples containing different antimicrobial concentrations above and below the MRLs for muscle. Figure S1 indicates the slaughter days and the withdrawal periods set by the manufacturer for each antimicrobial compound administered. Between one and three piglets were slaughtered on the same day post-administration. The day of slaughter was calculated from the first day after the last antimicrobial treatment dose. […] Apart from samples containing antimicrobial compounds administered in vivo, and as a part of the sample bank, 15 of the 93 piglets were slaughtered after the acclimatization period and before treatment onset. Animals were stunned and slaughtered following the guidelines established by European Council Regulation (EC) No. 1099/2009 [39] regarding the protection of animals at the time of slaughter or killing. A penetrative captive bolt gun was used to stun the pigs, positioning it firmly against the skin, in the middle of the forehead, 2 cm above the line of the eyes, aiming towards the tail. […]
Data were analyzed and submitted to comparison of averages via ANOVA, followed by a post-hoc Tukey test and t-tests with GraphPad PRISM. […]

[3] abbreviates: forequarter muscle, intramuscular, read-out: Concentration in Forequarters.
Where [4] appears, read: hindquarter muscle, intramuscular, read-out: Concentration in Hindquarters.
Where [5] appears, read: loin muscle, intramuscular, read-out: Concentration in Loins.
Setting [6] is: over the sample bank of treated piglets.

`COc1ccc(NS(=O)(=O)c2ccc(N)cc2)nn1` [Sulfamethoxypyridazine, sulfamethoxypyridazine]: in series [1] (both sexes, intramuscular, pig muscle, T1/2=Ln(2)/λz, read-out: T1/2 half-life of elimination (MUSCLE) (converted)), the half-life was 13.2 h. In addition, in series [1] (setting [3]), the concentration at 2 day of withdrawal period stood at 311 ± 22.6 ng/g and the concentration at 3 day of withdrawal period was determined as 43 ng/g. Moreover, in series [1] (setting [4]), the concentration at 2 day of withdrawal period was found to be 351 ± 20.1 ng/g and the concentration at 3 day of withdrawal period was 40.5 ± 0.71 ng/g. Moreover, in series [1] (setting [5]), the concentration at 2 day of withdrawal period amounted to 349 ± 16.5 ng/g and the concentration at 3 day of withdrawal period was found to be 49.5 ± 0.71 ng/g. In addition, in series [1] (setting [6]), the “Maximum concentration value in Muscle” value turned out to be 1179.67 ± 41.88 µg/kg and the “Minimum concentration value in Muscle” value was determined as 14.00 ± 1.41 µg/kg. The “Slope (MUSCLE)” value in series [1] (pig muscle, regression of concentration over the withdrawal period, deep intramuscular treatment) was −0.5494 ± 0.0237 ^a. Besides, the “Concentration in blood compared to muscle” value in series [2] was “three times higher in blood; also recorded: around three times higher”.
